TGI data for 13 compounds are collected here from PubChem BioAssay (NCI).

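These data come from cells grown in 96-well plates and exposed to compound for 48 hours at five concentrations. TGI: total growth inhibition.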 Where a SMILES comes first, the peptide text is derived from it. The star is where a group is joined. Boc = CC(C)(C)OC(=O)*

Some test systems named below: BT-549 breast; COLO 205 colon; HCT-116 colon; K-562 leukemia; MALME-3M melanoma; MDA-N; NCI/ADR-RES ovarian; OVCAR-4 ovarian; OVCAR-8 ovarian; PC-3 prostate; SK-MEL-28 melanoma; SN12C renal; SR leukemia; TK-10 renal; A549 NSCLC; KM12 colon; SK-MEL-5 melanoma; T-47D breast.
Holding throughout (assay): inhibition of tumour cell growth, NCI panel, 48 h

For `O=C(OC1C#CCSCC#C/C=C\1)c1cnc2ccccc2n1` (stereo not given), the TGI was > 100 µM in the assay with BT-549 breast; 30.8 µM with COLO 205 colon; > 100 µM in the assay on HCT-116 colon; 65.4 µM in the assay with K-562 leukemia; > 100 µM in the assay on MALME-3M melanoma; > 100 µM in the assay with MDA-N. The TGI in the assay on NCI/ADR-RES ovarian, in the assay on OVCAR-4 ovarian, with OVCAR-8 ovarian, in the assay with PC-3 prostate, with SK-MEL-28 melanoma and in the assay on SN12C renal was > 100 µM throughout. Moreover, the TGI with SR leukemia is 53.1 µM; with TK-10 renal, > 100 µM.

As to `COc1ccc(-c2c(C(C)=O)c(C)n(C3OC(COC(C)=O)C(OC(C)=O)C(OC(C)=O)C3OC(C)=O)c(=S)c2C#N)cc1` (stereo not given), the TGI in the assay on A549 NSCLC, in the assay with COLO 205 colon, in the assay with HCT-116 colon, in the assay on K-562 leukemia, in the assay on KM12 colon and in the assay with MALME-3M melanoma was > 100 µM throughout. The TGI in the assay on MDA-N, in the assay on NCI/ADR-RES ovarian, in the assay with OVCAR-4 ovarian, in the assay on OVCAR-8 ovarian, in the assay with PC-3 prostate and in the assay with SK-MEL-28 melanoma was > 100 µM each time. The TGI in the assay with SK-MEL-5 melanoma, in the assay on SN12C renal, in the assay on SR leukemia, with T-47D breast and in the assay on TK-10 renal was > 100 µM each time.

On to `CNC(=O)CNC(=O)C(NC(=O)CNC(=O)C1CCCN1C(=O)C(C)NC(=O)C(NC(=O)OC(C)(C)C)C(C)C)C(C)C` (stereo not given) (Boc-VAPGVG-NHMe; configuration not given here), for which the TGI in the assay on COLO 205 colon, with HCT-116 colon, in the assay with K-562 leukemia, in the assay on MALME-3M melanoma, in the assay with MDA-N and in the assay with NCI/ADR-RES ovarian was > 100 µM throughout. In addition, the TGI in the assay with OVCAR-4 ovarian, in the assay with OVCAR-8 ovarian, with PC-3 prostate, in the assay with SK-MEL-28 melanoma, in the assay with SN12C renal and in the assay on SR leukemia was > 100 µM in each case. Moreover, the TGI in the assay on T-47D breast and with TK-10 renal was > 100 µM each time.

For the compound `CN1CCN(Cn2nc(-c3ccccc3)n(/N=C/c3ccc(-c4ccc(Cl)cc4Cl)o3)c2=S)CC1`, the TGI is 14.8 µM in the assay on HCT-116 colon; 24.7 µM with K-562 leukemia; 41.3 µM in the assay on KM12 colon; > 100 µM in the assay with MDA-N; 56.2 µM in the assay with NCI/ADR-RES ovarian; 54.8 µM in the assay with OVCAR-4 ovarian. For the same compound, the TGI with OVCAR-8 ovarian was 25.8 µM; in the assay with PC-3 prostate, 22 µM; in the assay on SK-MEL-28 melanoma, 77.8 µM; in the assay with SK-MEL-5 melanoma, 68.9 µM; with SR leukemia it was 5.04 µM; in the assay with T-47D breast it was 45.1 µM. This compound returned a TGI with TK-10 renal of 29.7 µM.

As for `Cn1c(=O)oc2cc(C(=O)CN3CCN(Cc4ccc5c(c4)OCO5)CC3)c(Cl)cc21`, the TGI in the assay with COLO 205 colon, in the assay with HCT-116 colon, in the assay on K-562 leukemia, in the assay on MALME-3M melanoma, in the assay on MDA-N and in the assay on NCI/ADR-RES ovarian was > 100 µM each time. Moreover, the TGI in the assay on PC-3 prostate, in the assay on SK-MEL-5 melanoma, in the assay with SN12C renal, in the assay with SR leukemia and with T-47D breast was > 100 µM in each case.

Take `CCN1CCC(O)(/C=C/c2cccc(C)c2)C(C(=O)/C=C/c2cccc(C)c2)C1` (stereo not given): the TGI in the assay on A549 NSCLC is 5.97 µM; in the assay on COLO 205 colon, 4.67 µM; in the assay on HCT-116 colon, 6.13 µM; with K-562 leukemia, > 29.8 µM; in the assay on KM12 colon, 3.27 µM; with MALME-3M melanoma, 3.53 µM. Further, the TGI in the assay on MDA-N was 8.67 µM; in the assay with NCI/ADR-RES ovarian, 5.99 µM; with OVCAR-4 ovarian it was 13.6 µM; in the assay with OVCAR-8 ovarian it was 10.4 µM; in the assay with PC-3 prostate it was > 25.4 µM; in the assay with SK-MEL-28 melanoma, 4.49 µM. Besides, the TGI with SK-MEL-5 melanoma was 3.99 µM; with SN12C renal it was 7.04 µM; in the assay on SR leukemia, > 100 µM; in the assay with T-47D breast it was 8.38 µM; with TK-10 renal it was 3.92 µM.

In the case of `CC(Cc1ccc(O)cn1)(NC(=O)c1ccccc1)C(=O)O` (stereo not given), the TGI with A549 NSCLC, in the assay with BT-549 breast, in the assay on COLO 205 colon, with HCT-116 colon, in the assay with K-562 leukemia and in the assay on KM12 colon was > 100 µM in each case. Further, the TGI with MALME-3M melanoma, in the assay on MDA-N, in the assay with NCI/ADR-RES ovarian, in the assay on OVCAR-4 ovarian, with OVCAR-8 ovarian and in the assay on PC-3 prostate was > 100 µM each time. In addition, the TGI with SK-MEL-28 melanoma, in the assay with SK-MEL-5 melanoma, with SR leukemia and in the assay with TK-10 renal was > 100 µM each time.

Turning to `CC1(C)CC(=O)c2c(nc3c(ccc4ccccc43)c2-c2ccc(NC(=O)CCCCCCCCC(=O)Nc3ccc(-c4c5c(nc6c4ccc4ccccc46)CC(C)(C)CC5=O)cc3)cc2)C1`, the TGI in the assay with A549 NSCLC, in the assay on COLO 205 colon, in the assay with HCT-116 colon, in the assay on K-562 leukemia, with KM12 colon and with MDA-N was > 100 µM in each case. For the same compound, the TGI in the assay with NCI/ADR-RES ovarian, in the assay with OVCAR-8 ovarian, in the assay on PC-3 prostate, with SK-MEL-28 melanoma, with SK-MEL-5 melanoma and with SN12C renal was > 100 µM each time. Further, the TGI in the assay on SR leukemia, in the assay on T-47D breast and in the assay with TK-10 renal was > 100 µM each time.

As for `COc1ccc(NS(=O)(=O)c2ccc3ncn(NS(=O)(=O)c4ccc(I)cc4)c(=O)c3c2)cc1`, the TGI in the assay on A549 NSCLC, in the assay with COLO 205 colon, with HCT-116 colon, with K-562 leukemia, with KM12 colon and in the assay on MALME-3M melanoma was > 100 µM each time. Moreover, the TGI in the assay on MDA-N, in the assay with NCI/ADR-RES ovarian, with OVCAR-4 ovarian, in the assay on OVCAR-8 ovarian, with PC-3 prostate and in the assay with SK-MEL-28 melanoma was > 100 µM throughout. Moreover, the TGI in the assay on SK-MEL-5 melanoma, in the assay on SN12C renal, with SR leukemia, in the assay on T-47D breast and in the assay on TK-10 renal was > 100 µM in each case.

Take `NC(=S)Nc1c(S(N)(=O)=O)cc(S(N)(=O)=O)c(Cl)c1Cl`: the TGI in the assay on A549 NSCLC, in the assay with BT-549 breast, in the assay on COLO 205 colon, in the assay with HCT-116 colon, in the assay on K-562 leukemia and in the assay on KM12 colon was > 100 µM in each case. In addition, the TGI in the assay with MALME-3M melanoma, with MDA-N, with NCI/ADR-RES ovarian, with OVCAR-4 ovarian, in the assay on OVCAR-8 ovarian and with PC-3 prostate was > 100 µM each time. Moreover, the TGI in the assay with SK-MEL-28 melanoma, in the assay with SK-MEL-5 melanoma, with SN12C renal and with TK-10 renal was > 100 µM each time.

Take `O=C(CC(O)(C(F)(F)Cl)C(F)(F)Cl)CC(O)(C(F)(F)Cl)C(F)(F)Cl`: the TGI was > 10 µM in the assay with A549 NSCLC; 3.07 µM in the assay on COLO 205 colon; 3.68 µM in the assay on HCT-116 colon; 4.45 µM in the assay on K-562 leukemia; > 10 µM with KM12 colon; 4.36 µM in the assay on MALME-3M melanoma. The TGI is > 10 µM in the assay with MDA-N; > 10 µM in the assay on NCI/ADR-RES ovarian; 9.67 µM with OVCAR-4 ovarian; > 10 µM with OVCAR-8 ovarian; 8.2 µM in the assay with PC-3 prostate; > 10 µM in the assay on SK-MEL-28 melanoma. Besides, the TGI in the assay on SK-MEL-5 melanoma was 4.62 µM; with SN12C renal, > 10 µM; in the assay on SR leukemia it was > 10 µM; in the assay with T-47D breast, 6.6 µM; with TK-10 renal it was > 10 µM.

Consider `CC1(C)OP(=O)(c2ccccc2)C=C1Br` (stereo not given), for which the TGI in the assay on A549 NSCLC, in the assay with COLO 205 colon, in the assay with HCT-116 colon, in the assay with K-562 leukemia, in the assay on KM12 colon and in the assay on MALME-3M melanoma was > 100 µM each time. Further, the TGI with MDA-N, with NCI/ADR-RES ovarian, in the assay with OVCAR-4 ovarian, in the assay on OVCAR-8 ovarian, in the assay on PC-3 prostate and in the assay on SK-MEL-28 melanoma was > 100 µM throughout. Besides, the TGI with SK-MEL-5 melanoma, in the assay with SN12C renal, in the assay on SR leukemia, in the assay with T-47D breast and in the assay on TK-10 renal was > 100 µM in each case.

Turning to `C=CC(Br)(CBr)CCC1OC1(C)C` (stereo not given), the TGI in the assay on A549 NSCLC is 64.3 µM; in the assay on BT-549 breast, 30.2 µM; in the assay with COLO 205 colon, 36.2 µM; in the assay with HCT-116 colon, 30.7 µM; with K-562 leukemia, > 100 µM; in the assay with KM12 colon, 30.9 µM. Moreover, the TGI in the assay on MALME-3M melanoma amounted to 38.2 µM; in the assay with MDA-N it was 24.5 µM; with NCI/ADR-RES ovarian it was 58.7 µM; in the assay with OVCAR-4 ovarian, 30.5 µM; in the assay with PC-3 prostate it was 30.9 µM; in the assay on SK-MEL-28 melanoma, 30.5 µM. The TGI came to 27.3 µM in the assay on SK-MEL-5 melanoma, 30.5 µM in the assay with SN12C renal, 86.8 µM with SR leukemia and 36.2 µM with TK-10 renal.
